In ChEMBL document CHEMBL1201862, “PubChem BioAssay data set” (2004):
The source made the active and inactive calls.

Tests used:
Leucine aminopeptidase = target: T1, Leucine aminopeptidase (Plasmodium falciparum 3D7, UniProt Q8IL11); experiment: P. falciparum M17LAP inhibitors, primary screen, biochemical, fluorogenic H-Leu-NHMec substrate, 1536-well (AID 1619); assay type: functional
T1 sequence (Q8IL11 whole entry): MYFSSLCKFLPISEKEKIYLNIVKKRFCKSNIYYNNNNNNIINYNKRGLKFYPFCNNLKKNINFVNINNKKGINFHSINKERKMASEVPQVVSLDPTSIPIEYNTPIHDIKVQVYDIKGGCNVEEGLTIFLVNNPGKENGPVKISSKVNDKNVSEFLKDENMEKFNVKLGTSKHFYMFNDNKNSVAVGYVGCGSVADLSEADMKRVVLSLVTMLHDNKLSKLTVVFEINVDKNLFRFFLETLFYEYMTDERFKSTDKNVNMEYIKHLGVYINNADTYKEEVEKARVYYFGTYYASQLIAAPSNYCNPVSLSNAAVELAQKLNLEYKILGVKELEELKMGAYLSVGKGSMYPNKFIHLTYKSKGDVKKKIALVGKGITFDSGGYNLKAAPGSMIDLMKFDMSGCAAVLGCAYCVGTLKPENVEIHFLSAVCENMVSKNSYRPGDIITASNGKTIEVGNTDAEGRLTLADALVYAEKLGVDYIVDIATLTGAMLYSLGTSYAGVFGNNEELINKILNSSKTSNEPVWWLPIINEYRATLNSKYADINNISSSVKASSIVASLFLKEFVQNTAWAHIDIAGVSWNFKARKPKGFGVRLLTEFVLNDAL

[1] = target: T2, Corticotropin-releasing factor receptor 2/Corticotropin-releasing factor-binding protein (Homo sapiens, UniProt P24387+Q13324); experiment: Dose Response confirmation of uHTS hits for small molecule antagonists of the CRF-binding protein and CRF-R2 receptor complex.; assay type: functional; settings: read-out: IC50_Mean
T2 sequence (Q13324 whole entry): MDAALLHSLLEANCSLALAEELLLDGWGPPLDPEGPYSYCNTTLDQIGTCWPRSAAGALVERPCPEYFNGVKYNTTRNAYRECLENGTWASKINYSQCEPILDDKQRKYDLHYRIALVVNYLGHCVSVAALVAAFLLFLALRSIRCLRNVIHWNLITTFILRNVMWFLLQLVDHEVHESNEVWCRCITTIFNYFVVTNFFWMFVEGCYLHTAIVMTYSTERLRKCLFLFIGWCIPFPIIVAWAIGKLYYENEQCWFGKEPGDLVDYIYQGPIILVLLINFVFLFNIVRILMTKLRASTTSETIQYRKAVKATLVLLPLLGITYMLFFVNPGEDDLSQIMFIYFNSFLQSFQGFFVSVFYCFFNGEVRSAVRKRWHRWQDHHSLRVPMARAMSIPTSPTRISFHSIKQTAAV
T2 sequence (P24387 whole entry): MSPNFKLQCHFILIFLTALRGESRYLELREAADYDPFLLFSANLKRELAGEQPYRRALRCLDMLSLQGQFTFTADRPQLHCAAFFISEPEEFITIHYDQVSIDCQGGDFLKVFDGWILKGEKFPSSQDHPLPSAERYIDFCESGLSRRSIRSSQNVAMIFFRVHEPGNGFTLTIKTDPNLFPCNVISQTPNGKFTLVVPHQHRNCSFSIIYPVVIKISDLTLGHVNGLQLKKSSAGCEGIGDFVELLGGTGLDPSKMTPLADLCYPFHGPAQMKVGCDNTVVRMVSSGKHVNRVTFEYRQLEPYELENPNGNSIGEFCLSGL

[2] = target: T2, Corticotropin-releasing factor receptor 2/Corticotropin-releasing factor-binding protein; experiment: activators of CRF receptor 2 with binding protein – uHTS hits, confirmation (AID 602473); assay type: functional; settings: read-out: EC50_Mean
[3] = Luminescence Cell-Based Dose Confirmation HTS to Identify Activators of 5'UTR Stem-Loop Driven Alpha-Synuclein mRNA Translation in H4 Neuroglioblastoma Cells. [Related pubchem assays: 1829 (Project Summary), 1814 (Primary HTS)]; assay type: functional
[4] = Luminescence Cell-Based Dose Response HTS to Identify Activators of Luciferase Translation or Activity in H4 […] Cells. [Related pubchem assays: 1829 (Project Summary), 1814 (Primary HTS)]; assay type: functional
[5] = test system: Streptococcus sp. 'group A'; experiment: Streptococcus pyogenes SK(-)GAS viability under kanamycin – luminescence, BacTiterGlo, confirmation, counter-screen for streptokinase expression inhibitor project, dose response (AID 1900); assay type: functional, organism-based
H4 = experiment: Luminescence Cell-Based Dose Response HTS to Identify Activators of 5'UTR Stem-Loop Driven Prion Protein mRNA Translation in H4 Neuroglioblastoma Cells. [Related pubchem assays: 1829 (Project Summary), 1814 (Primary HTS)]; assay type: functional; settings: Homo sapiens
Streptokinase A = target: T3, Streptokinase A (Streptococcus pyogenes serotype M1, UniProt P10520); experiment: viability-normalized secreted streptokinase activity reduction – plasminogen activation absorbance, OD405, dose response (AID 1914); assay type: functional, Streptococcus pyogenes M1 GAS;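 note: secreted streptokinase activity via plasminogen activation per viability signal from cell pellet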
T3 sequence (P10520 whole entry): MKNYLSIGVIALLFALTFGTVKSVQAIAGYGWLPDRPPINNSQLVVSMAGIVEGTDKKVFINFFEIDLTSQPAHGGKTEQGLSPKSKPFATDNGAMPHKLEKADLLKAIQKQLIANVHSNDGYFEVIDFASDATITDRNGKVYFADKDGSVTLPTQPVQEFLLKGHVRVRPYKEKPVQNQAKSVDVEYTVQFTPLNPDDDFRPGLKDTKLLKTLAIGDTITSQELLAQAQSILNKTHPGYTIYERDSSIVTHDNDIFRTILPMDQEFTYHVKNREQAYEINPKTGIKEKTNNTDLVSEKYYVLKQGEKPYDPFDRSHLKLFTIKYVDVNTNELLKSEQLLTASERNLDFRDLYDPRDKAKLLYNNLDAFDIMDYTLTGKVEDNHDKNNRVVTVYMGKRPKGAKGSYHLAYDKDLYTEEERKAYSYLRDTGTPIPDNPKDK

Streptococcus = experiment: GAS UMAA2166 growth inhibition – luminescence, BacTiterGlo, counter-screen for streptokinase expression inhibitor project, dose response (AID 1915); assay type: functional, organism-based;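 note: potency for reduction of bacterial viability or growth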
Vero [6] = experiment: cells; assay type: functional, cell-based; settings: Chlorocebus sabaeus
Vero [7] = experiment: cells; assay type: functional; settings: Chlorocebus sabaeus
[8] = viability of uninfected HEp-2 cells – cell-based, HTS, cytotoxicity control for RSV inhibitor project, dose response (AID 2410); assay type: functional; settings: human respiratory syncytial virus
Protein skinhead-1 = target: T4, Protein skinhead-1 (Caenorhabditis elegans, UniProt P34707); assay type: functional
T4 sequence (P34707 whole entry): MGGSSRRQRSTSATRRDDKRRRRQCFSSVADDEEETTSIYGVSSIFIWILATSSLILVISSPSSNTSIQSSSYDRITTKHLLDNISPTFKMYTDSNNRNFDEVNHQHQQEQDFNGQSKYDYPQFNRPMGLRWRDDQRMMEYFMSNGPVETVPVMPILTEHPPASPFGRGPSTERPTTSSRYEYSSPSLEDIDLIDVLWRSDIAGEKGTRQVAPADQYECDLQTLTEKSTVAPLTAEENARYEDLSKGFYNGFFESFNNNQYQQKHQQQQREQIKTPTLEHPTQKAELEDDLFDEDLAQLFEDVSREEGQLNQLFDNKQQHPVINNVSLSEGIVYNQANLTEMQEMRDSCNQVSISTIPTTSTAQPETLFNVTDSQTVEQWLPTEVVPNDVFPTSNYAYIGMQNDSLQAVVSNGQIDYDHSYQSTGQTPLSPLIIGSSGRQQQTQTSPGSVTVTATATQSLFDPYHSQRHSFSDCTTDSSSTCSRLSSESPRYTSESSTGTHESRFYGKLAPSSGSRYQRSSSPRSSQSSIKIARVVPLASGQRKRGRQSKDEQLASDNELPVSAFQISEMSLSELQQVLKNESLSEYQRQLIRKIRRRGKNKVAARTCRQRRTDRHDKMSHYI

Large T antigen = Large T antigen (Simian virus 40, UniProt P03070); assay type: functional, Betapolyomavirus macacae;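 note: Confirmatory-stage PubChem screen for compounds that inhibit SV40 T antigen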
Sequence of Large T antigen (P03070 whole entry): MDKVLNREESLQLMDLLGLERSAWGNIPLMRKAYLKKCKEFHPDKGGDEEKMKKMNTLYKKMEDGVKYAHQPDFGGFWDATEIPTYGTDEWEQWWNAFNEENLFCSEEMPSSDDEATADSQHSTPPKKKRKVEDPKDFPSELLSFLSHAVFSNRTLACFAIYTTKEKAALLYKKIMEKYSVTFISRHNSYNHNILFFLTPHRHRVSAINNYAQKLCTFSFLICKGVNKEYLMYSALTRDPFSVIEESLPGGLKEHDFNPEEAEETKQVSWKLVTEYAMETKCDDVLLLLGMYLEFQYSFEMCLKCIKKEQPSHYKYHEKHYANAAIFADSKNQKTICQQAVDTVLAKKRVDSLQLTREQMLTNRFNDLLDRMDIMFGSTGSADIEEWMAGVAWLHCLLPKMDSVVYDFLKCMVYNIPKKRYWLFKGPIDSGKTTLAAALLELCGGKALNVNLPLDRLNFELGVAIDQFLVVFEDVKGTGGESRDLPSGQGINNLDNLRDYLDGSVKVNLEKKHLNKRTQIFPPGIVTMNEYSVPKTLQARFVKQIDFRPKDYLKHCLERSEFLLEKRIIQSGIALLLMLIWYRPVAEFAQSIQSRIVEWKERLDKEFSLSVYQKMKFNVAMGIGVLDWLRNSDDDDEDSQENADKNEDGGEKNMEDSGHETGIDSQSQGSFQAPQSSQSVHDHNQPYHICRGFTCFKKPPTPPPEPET

[9] = P. falciparum Dd2 growth inhibitors, dose response, SYBR Green, cherry-picked samples (AID 1159567); assay type: functional, cell-based
[10] = microbe, parasite or virus in culture; assay type: functional; settings: Mycobacterium tuberculosis
Genome polyprotein = Genome polyprotein (dengue virus type 2, UniProt P29990); experiment: flavivirus cap methylation enzyme inhibition – biochemical, confirmation dose response, primary screen (AID 588689); assay type: functional
Sequence of Genome polyprotein (P29990 2492-3391 limits assumed): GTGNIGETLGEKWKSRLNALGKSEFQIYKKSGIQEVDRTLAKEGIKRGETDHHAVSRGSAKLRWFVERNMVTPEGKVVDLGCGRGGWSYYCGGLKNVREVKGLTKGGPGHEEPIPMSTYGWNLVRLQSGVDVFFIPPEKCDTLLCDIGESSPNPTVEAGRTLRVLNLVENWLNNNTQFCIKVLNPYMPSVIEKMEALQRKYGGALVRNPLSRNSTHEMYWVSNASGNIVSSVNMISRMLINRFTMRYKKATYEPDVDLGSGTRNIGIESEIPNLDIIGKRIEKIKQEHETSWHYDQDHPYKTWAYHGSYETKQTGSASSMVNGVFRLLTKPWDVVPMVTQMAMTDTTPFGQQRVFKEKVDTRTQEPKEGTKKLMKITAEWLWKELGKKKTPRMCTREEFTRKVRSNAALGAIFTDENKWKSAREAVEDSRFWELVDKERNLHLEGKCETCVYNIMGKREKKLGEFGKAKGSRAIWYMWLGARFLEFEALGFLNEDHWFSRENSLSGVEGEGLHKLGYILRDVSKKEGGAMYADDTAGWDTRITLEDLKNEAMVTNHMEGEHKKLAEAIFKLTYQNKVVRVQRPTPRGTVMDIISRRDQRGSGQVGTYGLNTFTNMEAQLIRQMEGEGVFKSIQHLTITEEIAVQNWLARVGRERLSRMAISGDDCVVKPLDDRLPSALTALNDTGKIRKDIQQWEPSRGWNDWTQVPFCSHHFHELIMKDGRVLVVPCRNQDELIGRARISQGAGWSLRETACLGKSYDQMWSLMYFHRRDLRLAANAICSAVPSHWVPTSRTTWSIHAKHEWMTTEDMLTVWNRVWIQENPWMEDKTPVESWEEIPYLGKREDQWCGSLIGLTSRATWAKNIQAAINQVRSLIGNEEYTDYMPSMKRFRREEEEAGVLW

[11] = target: T5, Ubiquitin-conjugating enzyme E2 N (Homo sapiens, UniProt P61088); assay type: functional;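 note: Dose-response confirmation in a TR-FRET assay detecting UBC13-driven polyubiquitin chain formation, inhibition measured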
T5 sequence (P61088 whole entry): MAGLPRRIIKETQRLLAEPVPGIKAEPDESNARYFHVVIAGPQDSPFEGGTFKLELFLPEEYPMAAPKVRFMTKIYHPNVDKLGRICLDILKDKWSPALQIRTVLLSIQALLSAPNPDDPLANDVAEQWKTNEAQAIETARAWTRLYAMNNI

[12] = target: Induced myeloid leukemia cell differentiation protein Mcl-1 (Homo sapiens, UniProt Q07820); assay type: functional
Sequence of Induced myeloid leukemia cell differentiation protein Mcl-1 (Q07820 whole entry): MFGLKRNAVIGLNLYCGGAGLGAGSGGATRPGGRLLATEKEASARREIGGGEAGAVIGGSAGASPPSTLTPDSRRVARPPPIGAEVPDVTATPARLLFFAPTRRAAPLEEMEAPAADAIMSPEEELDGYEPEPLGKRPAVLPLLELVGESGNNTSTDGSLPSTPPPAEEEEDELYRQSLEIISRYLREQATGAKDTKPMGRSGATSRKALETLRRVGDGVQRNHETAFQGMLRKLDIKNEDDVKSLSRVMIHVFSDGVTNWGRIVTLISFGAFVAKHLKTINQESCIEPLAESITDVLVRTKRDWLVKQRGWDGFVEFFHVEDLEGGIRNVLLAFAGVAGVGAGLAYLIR

O=C(CSc1ccccc1)NN1C(=O)c2ccccc2C1=O
IC50 (Leucine aminopeptidase): 54.4 µM (active) | IC50 [1]: > 47.1 µM (inactive) | EC50 [2]: > 53 µM (inactive)

CC1CC(C)CN(Cc2nc(N)nc(Nc3ccc4ccccc4c3)n2)C1 (stereo not given)
EC50 [3]: > 60 µM (not active) | EC50 [4]: 12.9 µM (active) | EC50 [5]: > 150 µM (not active) | EC50 (H4): > 120 µM (not active) | EC50 (Streptokinase A): > 150 µM (not active) | EC50 (Streptococcus): > 150 µM (not active) | IC50 (Vero [6]): > 25 µM (active) | CC50 (Vero [7]): 14.1 µM (active)

CCN(c1ccccc1)S(=O)(=O)c1cccc(C(=O)Nc2ccc(C)cn2)c1
CC50 [8]: 30.3 µM (active) | IC50 (Protein skinhead-1): > 100 µM (inactive)

CN(C)C(S)=Nc1ccc(N2CCOCC2)cc1
IC50 (Large T antigen): 11 µM (active)

O=C(c1cnn(C(=O)c2ccccc2)c1)c1ccccc1O
IC50 (Leucine aminopeptidase): 72.6 µM (active)

Nc1ccc2c(c1)sc1ccccc12
IC50 (Protein skinhead-1): 29 µM (active)

Cc1ccc(NC(=O)CSc2nnc[nH]2)cc1
IC50 (Leucine aminopeptidase): 34 µM (active)

N#CC1=C(N)N(c2ccc(F)cc2)C2=C(C1c1ccc(O)cc1)S(=O)(=O)CC2 (stereo not given)
IC50 (Protein skinhead-1): > 100 µM (inactive)

CC(=O)c1ccc(OCCCC(=O)n2nnc3ccccc32)cc1
IC50 (Leucine aminopeptidase): 61.9 µM (active)

O=C(Cc1nnc(O)c2ccccc12)OCc1c(Cl)cccc1Cl
IC50 (Vero [6]): 8 µM (active)

O=C(NCc1ccco1)C1CC(=O)N(c2ccc(O)cc2)C1 (stereo not given)
IC50 (Large T antigen): 19.8 µM (active)

Cc1c(Nc2nc3ccccc3nc2NS(=O)(=O)c2ccccc2)c(=O)n(-c2ccccc2)n1C
IC50 (Leucine aminopeptidase): 68.1 µM (active)

CCCc1cn([C@H]2C[C@@H]3O[C@@H](CO)CC[C@@H]3O[C@@H]2CCc2ccc(-c3ccc(OC)cc3)cc2)nn1
AC50 [9]: 6.63 µM (active)

CCn1c(SCC(=O)Nc2nc3ccc(C)cc3s2)nc2c(c1=O)SC(C)C2 (stereo not given)
CC50 [10]: > 40 µM (active)

COc1cccc(-c2ccc3c(c2)[C@H]2[C@H](CCN2C(=O)C2CCCCC2)[C@@H](CO)N3)c1
AC50 [9]: 4.95 µM (active)

CCc1ccc(/N=C\C23c4ccccc4C(c4ccccc42)C2C(=O)N(c4ccc(OC)cc4)C(=O)C23)cc1 (stereo not given)
CC50 [10]: > 40 µM (active)

Cc1c(/C=N/NC(=O)c2cccs2)c2ccccc2n1Cc1ccccc1Cl
IC50 (Vero [6]): > 25 µM (active) | CC50 (Vero [7]): > 25 µM (active)

CCCOC(=O)c1c(NC(=O)C2C3C=CC(C3)C2C(=O)O)sc2c1CCC(C)C2 (stereo not given)
IC50 (Genome polyprotein): 50.3 µM (active)

COc1cc(C(CCN2CCCCC2)c2c(OC)cc(OC)c3c(-c4ccccc4)cc(=O)oc23)cc(OC)c1OC (stereo not given)
IC50 [11]: > 20 µM (inactive) | CC50 (Vero [7]): > 25 µM (active)

COc1ccc2c3c([nH]c2c1)[C@H](CO)N(Cc1ccccc1Cl)CC31CN(C(C)=O)C1
AC50 [9]: 5.9 µM (active)

O=C(Nc1ccc(Cl)c(Cl)c1)c1ccccc1
IC50 (Protein skinhead-1): > 100 µM (inactive)

COc1cc(C=C(C(C)=O)C(C)=O)ccc1O
IC50 (Large T antigen): 8.18 µM (active)

O=C1Cc2ccccc2Sc2ccc(O)cc21
IC50 [11]: > 20 µM (inactive) | EC50 [2]: > 53 µM (inactive)

N#C/C(=C\c1ccc(Cl)cc1Cl)c1n[nH]c(Cn2cncn2)n1
IC50 (Protein skinhead-1): > 100 µM (inactive)

Nc1nc2c(s1)C(=O)CC(c1ccccc1)C2 (stereo not given)
IC50 (Leucine aminopeptidase): 58.8 µM (active)

c1ccc2c(c1)CCN(c1nc(CN3CCOCC3)nc3sc4c(c13)CCCC4)C2
CC50 [10]: > 40 µM (active)

Nc1nc(O)c2c(n1)N=C1C(=C(O)c3ccccc31)C2c1cccc2ccccc12 (stereo not given)
IC50 [12]: 3.73 µM (active)

O=C(/C=C\c1ccco1)c1ccc(NC(=O)c2ccco2)cc1
IC50 [12]: 2.78 µM (active)

CC1=NN(c2ccccc2)C(=O)/C1=C/c1ccc(-c2ccc(C)c(C(=O)O)c2)o1
IC50 (Large T antigen): 35 µM (active)

Oc1cc2c(cc1O)[C@H]1c3ccccc3CN[C@@H]1CC2
IC50 (Large T antigen): 80 µM (active)

COc1ccc(/C=C/C(=O)c2ccc(O)cc2)cc1CN1CCOCC1
IC50 (Vero [6]): 8.49 µM (active) | CC50 (Vero [7]): > 25 µM (active)

CC(=O)/C(C#N)=C1\NC(=O)C(Cc2ccc(C)c(C)c2)S1 (stereo not given)
IC50 (Vero [6]): 5.04 µM (active) | CC50 (Vero [7]): > 25 µM (active)

Nc1ccc(OCCCc2c(N)nc(N)nc2N)cc1
IC50 (Large T antigen): 7.73 µM (active) | IC50 [11]: > 20 µM (inactive)

CC1=C(C#N)C(=O)N(C2CCS(=O)(=O)C2)C(=O)/C1=C\c1ccc(C)o1 (stereo not given)
IC50 (Large T antigen): 47.9 µM (active) | IC50 [12]: 1.6 µM (active)

CCc1cc(/C(Cc2ccccn2)=N\Nc2ccccc2)c(O)cc1O
CC50 [10]: > 40 µM (active)

COc1ccc(OC)c(C(=O)C2COC(=O)C2)c1 (stereo not given)
IC50 (Protein skinhead-1): > 100 µM (inactive)

COc1ccc(OC)c(NC(=O)[C@H]2CC=CC[C@H]2C(=O)O)c1
IC50 (Leucine aminopeptidase): 18.5 µM (active)

O=C(CSc1nnnn1C1CCCCC1)Nc1nc2c(s1)CCCC2
CC50 [10]: > 40 µM (active)
